In US8211890B2, “5-amino-2-(1-hydroxy-ethyl)-tetrahydropyran derivatives” (Actelion Pharmaceuticals, priority 2008, dated 2012):

Tests used:
[1] = tested on: S. aureus A798; test: Bacterial growth minimal inhibitory concentrations (microdilution, cation-adjusted Mueller-Hinton Broth); format: cell-based
Method: Minimal inhibitory concentrations (MICs; mg/l) were determined in cation-adjusted Mueller-Hinton Broth by a microdilution method following the description given in “Methods for Dilution Antimicrobial Susceptibility Tests for Bacteria that Grow Aerobically”, Approved standard, 7th ed., Clinical and Laboratory Standards Institute (CLSI) Document M7-A7, Wayne, Pa., USA, 2006.

[2] = molecular target: hERG K+ channel (Homo sapiens, UniProt Q12809); test: In vitro blocking of hERG K+ channels (QPatch automated patch-clamp, CHO-K1 cells); format: cell-based; conditions: pH 7.4, at 10 μM, CHOhERG cells, 4 minutes of stimulation, average block on two cells
Method: hERG K^+ channels have been cloned from human heart and recombinant channels are stably expressed in CHO-K1 cells (CHOhERG). These cells have been purchased from bSys GmbH (CH-4052 Basel, Switzerland) and are grown in 150 mL culture flasks at 37° C. in 5% CO2. When the cells are ˜100% confluent, they are detached with 0.25% trypsin-EDTA solution and placed in the cell preparation unit of a QPatch automated patch-clamp robot (Sophion Bioscience A/S, 2750 Ballerup, Denmark). Currents through the hERG K^+ channels (IKhERG) are elicited using the following buffer solutions and voltage protocol: • extracellular solution (in mM): [NaCl]=150; [KCl]=4; [CaCl2]=1.2; [MgCl2]=1; [HEPES]=10; pH adjusted to 7.4 with NaOH; • intracellular solution (in mM): [KCl]=140; [NaCl]=10; [MgCl2]=1; [HEPES]=10; [EGTA]=5; [Mg-ATP]=5; […] After the cells have stabilized for a few minutes and the currents are steady, the amplitude of IKhERG is recorded under control conditions. Thereafter, the QPatch robot applies the test compound to the cell at the test concentration and, after 4 minutes of stimulation, the amplitude of IKhERG is recorded under test conditions. The ratio of the two amplitudes is used to define a fractional block and the average block on two cells is used to provide the effect of a given concentration (e.g. 10 μM). If, for a given test compound, a sufficient number of concentrations were tested, an apparent IC50 for inhibition of IKhERG is calculated.

Chain of hERG K+ channel (Q12809 whole entry): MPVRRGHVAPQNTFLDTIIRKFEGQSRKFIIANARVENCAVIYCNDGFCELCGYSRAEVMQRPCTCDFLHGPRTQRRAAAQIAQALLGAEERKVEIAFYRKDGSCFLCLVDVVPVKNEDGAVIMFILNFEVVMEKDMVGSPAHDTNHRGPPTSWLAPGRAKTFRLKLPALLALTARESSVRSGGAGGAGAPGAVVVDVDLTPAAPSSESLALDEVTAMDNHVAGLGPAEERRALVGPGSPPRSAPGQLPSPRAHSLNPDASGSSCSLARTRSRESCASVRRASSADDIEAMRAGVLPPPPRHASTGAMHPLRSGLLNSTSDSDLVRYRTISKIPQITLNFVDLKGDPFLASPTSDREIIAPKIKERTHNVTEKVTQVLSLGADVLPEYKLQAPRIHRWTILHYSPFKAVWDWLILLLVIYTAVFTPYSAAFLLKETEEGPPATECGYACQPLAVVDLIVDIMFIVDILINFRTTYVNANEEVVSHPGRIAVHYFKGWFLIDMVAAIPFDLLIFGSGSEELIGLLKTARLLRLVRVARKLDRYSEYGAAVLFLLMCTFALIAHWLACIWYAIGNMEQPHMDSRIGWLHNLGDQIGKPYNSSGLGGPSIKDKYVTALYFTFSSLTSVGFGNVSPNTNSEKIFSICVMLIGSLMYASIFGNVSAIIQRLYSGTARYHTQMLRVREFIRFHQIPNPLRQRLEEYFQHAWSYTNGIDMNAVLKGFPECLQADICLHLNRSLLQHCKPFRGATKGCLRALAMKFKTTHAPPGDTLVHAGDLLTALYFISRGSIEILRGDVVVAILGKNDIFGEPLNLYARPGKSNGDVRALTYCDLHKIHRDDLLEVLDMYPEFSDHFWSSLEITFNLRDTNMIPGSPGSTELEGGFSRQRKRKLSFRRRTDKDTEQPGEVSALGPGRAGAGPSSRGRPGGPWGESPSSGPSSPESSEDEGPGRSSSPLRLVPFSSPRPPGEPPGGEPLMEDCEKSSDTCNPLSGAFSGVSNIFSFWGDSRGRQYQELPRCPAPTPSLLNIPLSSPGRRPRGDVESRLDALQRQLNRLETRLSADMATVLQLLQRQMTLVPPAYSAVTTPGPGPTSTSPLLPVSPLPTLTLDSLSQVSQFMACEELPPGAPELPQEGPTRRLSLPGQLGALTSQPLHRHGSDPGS

For `COc1ccc2ncc(F)c(C[C@H](O)[C@@H]3CC[C@@H](NCc4cc5c(cn4)OCCO5)CO3)c2n1` [Example 3, (1S)-1-{(2S,5R)-5-[(2,3-dihydro-[1,4]dioxino[2,3-c]pyridin-7-ylmethyl)-amino]-tetrahydro-pyran-2-yl}-2-(3-fluoro-6-methoxy-[1,5]naphthyridin-4-yl)-ethanol], which MIC ([1]; Staphylococcus aureus, microdilution) is on record?
The MIC was ≤ 0.031 mg/L.

What about the “MIC for S. aureus A798” value ([1]; comparison table of compounds of formula ICOMP) of the same compound?
The value was “≦0.031 mg/l”.

And the inhibition at 4 min, 10 µM [2]?
Its inhibition at 4 min, 10 µM is 29%.
